Columns and labels:
[1] = target: T1, GppNHp-loaded KRAS4b (amino acids 1-169) G12C/C118S (Homo sapiens, UniProt P01116, C118S/G12C); assay: MALDI-TOF MS covalent Cys12 modification, GppNHp-loaded KRAS G12C; format: binding; conditions: 15 minutes reaction time, 1 μM protein, 1:2.5 protein to compound ratio
T1 construct: KRAS4b (amino acids 1-169) G12C/C118S protein; made in house
Experimental: (§1) MALDI-TOF MS analysis was performed using 1 μM protein target, and 1:2.5 protein to compound ratio was used.
(§2) Reaction: 1 μM of GppNHp, GTP, or GDP-loaded KRAS4b (amino acids 1-169) G12C/C118S protein (produced in-house by Protein Expression Laboratory, FNLCR/Leidos Biomed) in 20 mM 4-(2-hydroxyethyl)-1-piperazineethanesulfonic acid (HEPES) buffer containing 150 mM NaCl, 1 mM MgCl2, pH 7.3 was prepared freshly before assay. Ten-μL aliquots of protein were dispensed onto low volume 384-well plate, then 375 nL DMSO, and 25 nL of tested compounds from 5 mM DMSO stocks were added to appropriate wells using ECHO 555 acoustic liquid handler (Labcyte Inc.). For each reaction/assay, three blanks were prepared by mixing 10 μL of protein solution with 400 nL DMSO. The contents of the wells were carefully mixed by aspiration, and then each plate was sealed with an adhesive cover, centrifuged at 2000 g for 1 minute, and kept in the dark at room temperature until 5 min, 15 min, 30 min, 2 h, or 6 h collections.
(§3) Target pretreatment: Before each assay MALDI target (Bruker MPT 384 ground steel BC) was pre-treated by pipetting on each spot 0.75 μL of saturated sinapinic acid in acetonitrile (ACN).
(§4) Sample preparation: At collection time point, 2 μL of reaction mixtures were pipetted out into 20 μL MALDI matrix solution (saturated solution of sinapinic acid in 1:1 ACN:water solution containing 0.75% trifluoroacetic acid (TFA)) deposited on 384 well polypropylene plate. Resulting solution was mixed by aspiration, centrifuged at 2000 g for 1 minute, then 1 μL aliquots were dispensed on pre-treated MALDI target using Beckman Coulter Biomek FX^P 96/384-Span-8 Laboratory Automation Workstation. Finally, the MALDI target was dried under mild vacuum to produce spots with fine crystalline structure.
(§5) Measurements: MALDI-TOF measurements were performed on a Bruker Daltonics rapifleX Tissuetyper TOF-TOF mass spectrometer using linear mode and mass range from 18.6 to 21.6 kDa. Detector gain was set to 3.3× (483 V), sample rate to 5 GS/s, real time smoothing to medium (175 MHz), laser smart beam pattern was set to: “MS Thin Layer M5”, and the laser frequency was 10000 Hz. Spectra were automatically collected using custom AutoXecute method. Laser power was auto adjusted using fuzzy control. The peak selection range was set to be between 19000 and 21500 Da. Peak evaluation uses half width parameter set to be smaller than 40 Da for processed spectrograms (centroid peak detection: smoothed by SavitzkyGolay algorithm using 7 m/z width and 2 cycles; baseline was subtracted using median algorithm with flatness 1 and median level 0.01). Fuzzy control used Proteins/Oligonucleotides protocol with minimum half width 1/10 times above threshold. Up to 40000 satisfactory shots were collected in 10000 shot steps. Dynamic termination was implemented to finish data collection when peak signal/noise ratio reached a value of 50.
(§6) Spectra processing: Spectra were smoothed by SavitzkyGolay algorithm using 7 m/z width and three cycles. Centroid peak detection algorithm was used with signal to noise threshold set to 6, relative intensity threshold 4%, peak width 10 m/z and median baseline subtraction using flatness of 1 and median level of 0.01. Peak intensity and area under the peak were evaluated and recorded for all peaks between 19,300 Da and 21,550 Da.
(§7) Calculation of percent modification: Percent modification was calculated as a ratio of peak height for protein modified by compound to sum of peak height of remaining protein plus peak height for protein modified by compound. If multiple modifications were observed each was calculated as a ratio of peak height for given modification versus sum of peak heights for all observed protein species. Data reported in Table 5 are from the 15 minutes reaction time point.

[2] = target: T2, GTP-loaded KRAS4b (amino acids 1-169) G12C/C118S (Homo sapiens, UniProt P01116, C118S/G12C); assay: MALDI-TOF MS covalent Cys12 modification, GTP-loaded KRAS G12C; format: binding; conditions: 15 minutes reaction time, 1 μM protein, 1:2.5 protein to compound ratio
T2 construct: KRAS4b (amino acids 1-169) G12C/C118S protein; made in house
Experimental: as §1, §2, §3, §4, §5, §6, §7

[3] = target: T3, GDP-loaded KRAS4b (amino acids 1-169) G12C/C118S (Homo sapiens, UniProt P01116, C118S/G12C); assay: MALDI-TOF MS covalent Cys12 modification, GDP-loaded KRAS G12C; format: binding; conditions: 15 minutes reaction time, 1 μM protein, 1:2.5 protein to compound ratio
T3 construct: KRAS4b (amino acids 1-169) G12C/C118S protein; made in house
Experimental: as §1, §2, §3, §4, §5, §6, §7

[4] = target: T4, Avi-KRAS G12C (1-169) GppNHp/RAF1 RBD-3×FLAG (52-151) (Homo sapiens, UniProt P01116, G12C); assay: KRAS G12C-effector (RAF1 RBD) protein:protein interaction HTRF disruption assay; format: biochemical; conditions: PPI HTRF
T4 construct: Avi-KRAS G12C (1-169) GppNHp
Experimental: A protein:protein interaction (PPI) Homogeneous Time Resolved Fluorescence (HTRF) assay was used to determine the effectiveness of compounds of the present disclosure in disrupting KRAS G12C protein and effector (RAF1) binding.
The HTRF assay used the following reagents and proteins: 50 nM Avi-KRAS G12C (1-169) GppNHp/RAF1 RBD-3×FLAG (52-151); 75 nM Avi-RAF1 RBD-3×FLAG; Assay Buffer: 50 mM Tris pH 7.5, 100 mM NaCl, 5 mM MgCl2, 0.1% BSA, 0.01% Tween 20, 10% DMSO; Bead Buffer: 50 mM Tris pH 7.5, 0.01% Tween 20; Assay volume: 20 μL (384 well plate-low volume format); and Compound titration: 30-0.02 μM, 3× dilution series.
The HTRF assay employed the following protocol:
Compounds were dispensed in assay plate (384-well, Grenier Bione #784075) using Echo (model 555) with dose response settings: 200 nL final volume, titration from 100 μM as a 10-point dilution series. KRAS proteins were prepared in assay buffer, and dispensed on plates, 5 μL per well, then incubated for 1 h at room temperature, with 700 rpm shaking. RAF1 RBD were prepared in assay buffer, dispensed onto plates, 5 μL per well, and then incubated for 1 h at room temperature, with 700 rpm shaking. Reagent mix was then prepared and dispensed on plates, 10 μL per well, and then incubated for 1 h at room temperature, with 700 rpm shaking.
Plates were analyzed on an Envision plate reader using the following setting: Excitation 320 nm, Bandwidth 75 nm, Emission 615 nm, Bandwidth 85 nm; Gain 100%; Flashes 100; Lag 60 μs. Data was reported as percentage of activity, with DMSO as 100%. Data was plotted and analyzed using Prism 8.

[5] = tested on: pERK in NCI-H358 cells; assay: Cell-based pERK HTRF assay; conditions: Homo sapiens, 0.5 h, 30 min incubation
Experimental: pERK HTRF assays (Perkin Elmer) were used to determine the effectiveness of compounds of the present disclosure in disrupting KRAS G12C protein/effector signaling in cells.
On Day 1, cells (NCI-H358) were seeded into 96-well plates at 4×10^4 cells/well in complete growth media (RPMI, 10% FBS).
On Day 2, cells were treated with compounds at 0.25% DMSO. The source plate was created with compounds diluted in media at 5-fold the final assay concentration. The compounds were run in a 9-point concentration curve starting at 75 μM, with a 3-fold dilution between concentrations. 20 μL was transferred onto the cell plates (final volume in wells was 100 μL). Plates were harvested after 30 min incubation by aspirating media and adding kit-supplied 1× supplemented lysis buffer to all wells (75 μL per well). Plates were then placed on a plate shaker and incubated at 850 rpm for an additional 30 min.
Antibody mixture solution was prepared by diluting aliquoted d2 and Eu Cryptate antibodies 1:20 in kit supplied detection buffer, then mixed the diluted antibodies solutions (1:1 v:v). 4 μL of this solution was then added to a 384-well detection plate (Perkin Elmer; 6008230).
Samples were homogenized by pipetting up and down and then transferred (16 μL of cell lysates) from the 96-well cell culture plate to two wells of the HTRF 384-well detection plate containing the antibody solution. Plates were centrifuged (524 g for 1 min) and allowed to incubate between 4 and 24 h at room temperature. Maximum signal is reached after 4 h incubation time and remains stable over a period of 24 hours. Therefore, readings can be made between 4 and 24 h of incubation. Plates were centrifuged again (524 g for 1 min) and analyzed on the EnVision plate reader using the following settings: Excitation 320 nm, Bandwidth 75 nm; Emission 615 nm, Bandwidth 85 nm; Gain 100%; Flashes 100; Lag 60 μs.

Structure (SMILES)	GppNHp-KRAS G12C percent of modification [1]	GTP-KRAS G12C percent of modification [2]	GDP-KRAS G12C percent of modification [3]	IC50 [4] [nM]	IC50 [5] [nM]
C=CC(=O)N1CC[C@@H](N(C)c2nc(OC[C@@]34CCCN3C[C@H](F)C4)nc3nc(-c4ccc(F)c5sc(N)c(C#N)c45)ccc23)C1 [Compound 9, 4-(4-(((R)-1-acryloylpyrrolidin-3-yl)(methyl)amino)-2-(((2R,7aS)-2-fluorotetrahydro-1H-pyrrolizin-7a(5H)-yl)methoxy)pyrido[2,3-d]pyrimidin-7-yl)-2-amino-7-fluorobenzo[b]thiophene-3-carbonitrile]	C (10%≤percent of modification <50%)	C (10%≤percent of modification <50%)	A (percent of modification ≥70%)	≤ 500	> 1000
C=CC(=O)N1C[C@H](C)N(c2nc(OC[C@@]34CCCN3C[C@H](F)C4)nc3cc(-c4ccc(F)c5sc(N)c(C#N)c45)c(C(F)(F)F)nc23)C[C@H]1C [Compound 10, 4-(4-((2S,5R)-4-acryloyl-2,5-dimethylpiperazin-1-yl)-2-(((2R,7aS)-2-fluorotetrahydro-1H-pyrrolizin-7a(5H)-yl)methoxy)-6-(trifluoromethyl)pyrido[3,2-d]pyrimidin-7-yl)-2-amino-7-fluorobenzo[b]thiophene-3-carbonitrile]	A (percent of modification ≥70%)	C (10%≤percent of modification <50%)	A (percent of modification ≥70%)	≤ 500	≤ 100
C=CC(=O)N1C[C@@H](F)[C@@H](N(C)c2nc(OC[C@@]34CCCN3C[C@H](F)C4)nc3c(F)c(-c4ccc(F)c5sc(N)c(C#N)c45)ncc23)C1 [Compound 11]	A (percent of modification ≥70%)	A (percent of modification ≥70%)	A (percent of modification ≥70%)	≤ 500	≤ 100
C=CC(=O)N1C[C@H](F)[C@@H](N(C)c2nc(OC[C@@]34CCCN3C[C@H](F)C4)nc3c(F)c(-c4ccc(F)c5sc(N)c(C#N)c45)ncc23)C1 [Compound 12]	A (percent of modification ≥70%)	A (percent of modification ≥70%)	A (percent of modification ≥70%)	≤ 500	≤ 100
C=CC(=O)N1C[C@H](N(C)c2nc(OC[C@@]34CCCN3C[C@H](F)C4)nc3cc(-c4ccc(F)c5sc(N)c(C#N)c45)c(C(F)(F)F)nc23)C[C@H]1C [Compound 13]	C (10%≤percent of modification <50%)	C (10%≤percent of modification <50%)	C (10%≤percent of modification <50%)	≤ 500	≤ 100
C=CC(=O)N1CC[C@@H](N(C)c2nc(N3CC(N4CC5(CC5)C4)C3)nc3c(F)c(-c4ccc(F)c5sc(N)c(C#N)c45)ncc23)C1 [Compound 14, 2-amino-4-[2-[3-(5-azaspiro[2.3]hexan-5-yl)azetidin-1-yl]-8-fluoro-4-[methyl-[(3R)-1-prop-2-enoylpyrrolidin-3-yl]amino]pyrido[4,3-d]pyrimidin-7-yl]-7-fluoro-benzothiophene-3-carbonitrile]	C (10%≤percent of modification <50%)	C (10%≤percent of modification <50%)	A (percent of modification ≥70%)	≤ 500	100 to 1000
C=CC(=O)N1CC[C@@H](N(C)c2nc(OC[C@@]34CCCN3C[C@H](F)C4)nc3cc(-c4ccc(F)c5sc(N)c(C#N)c45)c(C(F)(F)F)nc23)[C@H]1C [Compound 15]	A (percent of modification ≥70%)	A (percent of modification ≥70%)	A (percent of modification ≥70%)	≤ 500	≤ 100
